Laboratory results: patent US8119671B2, “Isoxazoline-substituted benzamide compound and pest control agent” (Nissan Chemical Industries, Ltd., priority 2007, dated 2012)

Assays:
Type in all cases: in vivo
Helicoverpa armigera = assay: Test Example 17: Mortality Test for Helicoverpa armigera (Comparative Test 1); conditions: 144 h, 3-instar larvae, after 6 days; for mortality at 3.3 ppm: concentration 3.3 ppm; for mortality at 10 ppm: concentration 10 ppm; for mortality at 33 ppm: concentration 33 ppm; for mortality at 100 ppm: concentration 100 ppm; for mortality at 0.1 ppm: concentration 0.1 ppm; for mortality at 0.3 ppm: concentration 0.3 ppm; for mortality at 1 ppm: concentration 1 ppm
Experimental: 10% emulsifiable concentrates of the compound of the present invention and a comparative compound were diluted with water containing a spreader to prepare drug solutions in a predetermined concentration. In these drug solutions, a leaf of Canarium album was immersed for about 10 seconds and was air-dried and then put into a petri dish. In the petri dish, seven 3-instar larvae of Helicoverpa armigera per petri dish were released and the petri dish was capped with a lid having pores and stored in a thermostat room of 25° C. After 2 days of the treatment, an artificial feed (1 cm^3) was added into the petri dish. The number of killed larvae after 6 days was measured and the mortality was calculated from the following calculation formula: Mortality (%)=(number of killed larvae/number of released larvae)×100. Here, the test was carried out with two replications.

[1] = tested on: Frankliniella occidentalis; assay: Test Example 18: Mortality Test for Frankliniella occidentalis (Comparative Test 2); conditions: 48 h
Experimental: In a styrol cup having an inner diameter of 7 cm, a wet filtration paper was laid, and on the paper, a leaf of kidney bean cut out so as to have the same diameter as the inner diameter of the cup was laid, followed by inoculating ten 1 instar larvae of Frankliniella occidentalis per leaf to the leaf. 10% emulsifiable concentrates of the compound of the present invention and a comparative compound were diluted with water containing a spreader to prepare drug solutions in a predetermined concentration. The drug solutions were dusted using a rotary dusting tower in an amount of 2.5 mL per styrol cup, and the cup was capped and stored in a thermostat room of 25° C. The number of killed larvae after 2 days was measured and the mortality was calculated from the following calculation formula: Mortality (%)=(number of killed larvae/number of released larvae)×100. Here, the test was carried out with two replications.

Homona magnanima = assay: Test Example 3: Mortality Test for Homona magnanima; conditions: 144 h
Experimental: (§1) A 10% emulsifiable concentrate of the compound of the present invention (depending on the type of the compound, a 10% wettable powder was subjected to the test) was diluted with water containing a spreader to prepare a drug solution in a concentration of 100 ppm. In this drug solution, a leaf of canarium album was immersed for about 10 seconds and was air-dried and then put into a petri dish. In the petri dish, five 2 instar larvae of Homona magnanima per petri dish were released and the petri dish was capped and stored in a thermostat room of 25° C. The number of killed larvae after 6 days was measured and the mortality was calculated from the same calculation formula as that in Test Example 1. Here, the test was carried out with two replications.

Liriomyza trifolii = assay: Test Example 13: Mortality Test for Liriomyza trifolii; conditions: 144 h, drug solution 500 ppm, kidney bean leaf with eggs immersed, after 6 days
Experimental: as §1, with “500” for “100”, “kidney bean on which Liriomyza trifolii laid eggs (10 eggs/leaf) and which was cut out to a diameter of 7 cm” for “canarium album”, “laid on” for “put into”, “wet filtration paper laid in a styrol cup having an inner diameter” for “petri dish. In the petri dish, five 2 instar larvae”, “7 cm. The styrol cup” for “Homona magnanima per petri dish were released and the petri dish”

Plutella xylostella = assay: Test Example 1: Mortality Test for Plutella xylostella; conditions: 144 h
Experimental: as §1, with “10” for “100”, “Plutella xylostella” for “Homona magnanima”, “following” for “same”, “formula: Mortality (%)=(number of killed larvae/number of released larvae)×100.” for “formula as that in Test Example 1.”

Spodoptera litura = assay: Test Example 2: Mortality Test for Spodoptera litura; conditions: 144 h
Experimental: as §1, with “10” for “100”, “Spodoptera litura” for “Homona magnanima”

Bemisia argentifolii = assay: Test Example 9: Mortality Test for Bemisia argentifolii; conditions: in Solanum lycopersicum, 144 h
Experimental: (§2) In a styrol cup having an inner diameter of 7 cm, a wet filtration paper was laid, and on the paper, a cut-out leaf of tomato on which Bemisia argentifolii laid eggs (10 eggs/leaf) was laid. A 10% emulsifiable concentrate of the compound of the present invention (depending on the type of the compound, a 10% wettable powder was subjected to the test) was diluted with water containing a spreader to prepare a drug solution in a concentration of 500 ppm. The drug solution was dusted using a rotary dusting tower in an amount of 2.5 mL per styrol cup and the cup was capped and stored in a thermostat room of 25° C. The number of killed larvae after 6 days was measured and the mortality was calculated from the same calculation formula as that in Test Example 1. Here, the test was carried out with two replications.

Planococcus kraunhiae = assay: Test Example 11: Mortality Test for Planococcus kraunhiae; conditions: 144 h
Experimental: as §2, with “a” for “a cut-out”, “kidney bean cut out so as to have the same diameter as the inner diameter of the cup” for “tomato on which Bemisia argentifolii laid eggs (10 eggs/leaf)”, “laid, followed by inoculating ten 1 instar larvae of Planococcus kraunhiae per leaf to the leaf.” for “laid.”

Myzus persicae = assay: Test Example 10: Mortality Test for Myzus persicae; conditions: 144 h
Experimental: In a glass petri dish having an inner diameter of 3 cm, a wet absorbent cotton was laid, and on the cotton, a leaf of canarium album cut out so as to have the same diameter as the inner diameter of the petri dish was laid, followed by releasing 4 apterous imagines of Myzus persicae on the leaf. After one day, 10% emulsifiable concentrate of the compound of the present invention (depending on the type of the compound, a 10% wettable powder was subjected to the test) was diluted with water containing a spreader to prepare a drug solution in a concentration of 500 ppm. The drug solution was dusted using a rotary dusting tower (2.5 mg/cm^2) and the petri dish was capped and stored in a thermostat room of 25° C. The number of killed imagines after 6 days was measured and the mortality was calculated from the same calculation formula as that in Test Example 1. Here, the test was carried out with two replications.

CNC(=O)NC(=O)c1ccc(C2=NOC(c3cc(Cl)cc(Cl)c3)(C(F)(F)F)C2)cc1C (centres unmarked) [Comparative compound A, reference compound]
mortality at 3.3 ppm (Helicoverpa armigera): 21.4% | mortality at 10 ppm (Helicoverpa armigera): 92.9% | mortality at 33 ppm (Helicoverpa armigera): 100% | mortality at 100 ppm (Helicoverpa armigera): 100%

COC(=NC(=O)c1ccc(C2=NOC(c3cc(Cl)cc(Cl)c3)(C(F)(F)F)C2)cc1C)SC (centres unmarked) [Comparative compound B, reference compound]
mortality at 3.3 ppm (Helicoverpa armigera): 35.7% | mortality at 10 ppm (Helicoverpa armigera): 71.4% | mortality at 33 ppm (Helicoverpa armigera): 85.7% | mortality at 100 ppm (Helicoverpa armigera): 100%

O=C(N[C@H]1C[C@@H]1c1ccccc1)c1ccc(C2=NOC(c3ccc(Cl)c(Cl)c3)(C(F)(F)F)C2)cc1 (some centres unmarked) [Comparative compound C]
mortality at 3.3 ppm [1]: 0% | mortality at 10 ppm [1]: 0% | mortality at 33 ppm [1]: 0% | mortality at 100 ppm [1]: 0%

CCNC(=O)NC(=O)c1ccc(C2=NOC(c3cc(Cl)cc(Cl)c3)(C(F)(F)F)C2)cc1C (centres unmarked) [Comparative compound D]
mortality at 3.3 ppm [1]: 0% | mortality at 10 ppm [1]: 45.7% | mortality at 33 ppm [1]: 100% | mortality at 100 ppm [1]: 100%

COC(N)=NC(=O)c1ccc(C2=NOC(c3cc(Cl)cc(Cl)c3)(C(F)(F)F)C2)cc1C (centres unmarked) [No. 2-003, N-[Amino(methoxy)methylidene]-4-[5-(3,5-dichlorophenyl)-5-trifluoromethyl-4,5-dihydroisoxazole-3-yl]-2-methyl benzoic acid amide]
mortality at 0.1 ppm (Helicoverpa armigera): 57.1% | mortality at 0.3 ppm (Helicoverpa armigera): 85.7% | mortality at 1 ppm (Helicoverpa armigera): 100% | mortality at 3.3 ppm (Helicoverpa armigera): 100% | mortality at 10 ppm (Helicoverpa armigera): 100% | mortality at 100 ppm (Homona magnanima): ≥ 80%

CSC(N)=NC(=O)c1ccc(C2=NOC(c3cc(Cl)cc(Cl)c3)(C(F)(F)F)C2)cc1C (centres unmarked) [No. 2-010, N-(Amino(methylthio)methylidene)-4-(5-(3,5-dichlorophenyl)-5-trifluoromethyl-4,5-dihydroisoxazole-3-yl)-2-methyl benzoic acid amide]
mortality at 100 ppm (Homona magnanima): ≥ 80% | mortality at 500 ppm (Liriomyza trifolii): ≥ 80%

CNC(N)=NC(=O)c1ccc(C2=NOC(c3cc(Cl)cc(Cl)c3)(C(F)(F)F)C2)cc1C (centres unmarked) [No. 2-012, N-[Amino(methylamino)methylidene]-4-[5-(3,5-dichlorophenyl)-5-trifluoromethyl-4,5-dihydroisoxazole-3-yl]-2-methyl benzoic acid amide]
mortality at 100 ppm (Plutella xylostella): ≥ 80% | mortality at 100 ppm (Spodoptera litura): ≥ 80%

CNC(=NC(=O)c1ccc(C2=NOC(c3cc(Cl)cc(Cl)c3)(C(F)(F)F)C2)cc1C)OC (centres unmarked) [No. 3-001, N-[Methoxy(methylamino)methylidene]-4-[5-(3,5-dichlorophenyl)-5-trifluoromethyl-4,5-dihydroisoxazole-3-yl]-2-methyl benzoic acid amide]
mortality at 500 ppm (Bemisia argentifolii): ≥ 80% | mortality at 0.1 ppm (Helicoverpa armigera): 0% | mortality at 0.3 ppm (Helicoverpa armigera): 21.4% | mortality at 1 ppm (Helicoverpa armigera): 71.4% | mortality at 3.3 ppm (Helicoverpa armigera): 100% | mortality at 10 ppm (Helicoverpa armigera): 100% | mortality at 500 ppm (Planococcus kraunhiae): ≥ 80% | mortality at 500 ppm (Myzus persicae): ≥ 80% | mortality at 100 ppm (Homona magnanima): ≥ 80%
